Reference: patent publication US20050239656A1, “Pyridine compounds or salts thereof and herbicides containing the same” (priority 2002, published 2005)

Key:
redroot pigweed = assay: Test Example 2: soil surface treatment, upland pot test; type: in vivo, Amaranthus retroflexus L.; details: observed 20th to 28th day
Method in brief: (§1)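 Pre-emergence soil-surface spray, 1 d after sowing; 1/170,000 ha pots, upland soil; WP or EC formulation, set a.i. rate, 1,500 L/ha water; visual growth-control score 0–100% at days 20–28 post-treatment.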

velvetleaf = assay: as above; type: in vivo, Abutilon theophrasti MEDIC.; details: observed 20th to 28th day
Method in brief: as §1

green foxtail = assay: as above; type: in vivo, Setaria viridis L.; details: observed 20th to 28th day
Method in brief: as §1

prickly sida = assay: as above; type: in vivo, Sida spinosa L.; details: observed 20th to 28th day
Method in brief: as §1

rice = assay: as above; type: in vivo, Oryza sativa L.; details: observed 20th to 28th day
Method in brief: as §1

barnyardgrass [1] = assay: as above; type: in vivo, Echinochloa crus-galli L.; details: observed 20th to 28th day
Method in brief: as §1

crabgrass = assay: as above; type: in vivo, Digitaria sanguinalis L.; details: observed 20th to 28th day
Method in brief: as §1

corn = assay: as above; type: in vivo, Zea mays L.; details: observed 20th to 28th day
Method in brief: as §1

soybean = assay: as above; type: in vivo, Glycine max Merr.; details: observed 20th to 28th day
Method in brief: as §1

wheat = assay: as above; type: in vivo, Triticum spp.; details: observed 20th to 28th day
Excerpt: Upland field soil was put into a 1/170,000 ha pot, and seed of various plants (barnyardgrass, crabgrass, green foxtail, redroot pigweed, prickly sida, velvetleaf, rice, wheat, corn, soybean) were sown. On the 1st day after the sowing, a wettable powder or emulsifiable concentrate having the compound of the present invention formulated in accordance with a usual formulation method, was weighed so that the active ingredient would be a predetermined amount, and diluted with water in an amount of 1,500 L/ha. The herbicide thus adjusted was applied by a small size sprayer for soil surface treatment. On the 20th to 28th days after the application of the herbicide, the growth of the respective plants was visually observed, and the herbicidal effects were evaluated by the growth controlling degrees (%) ranging from 0 (equivalent to the non-treated plot) to 100 (complete kill), whereby the results shown in Table 4, were obtained.

barnyardgrass [2] = assay: Test Example 3: paddy pot test, application under submerged conditions; type: in vivo, Echinochloa crus-galli L.; details: submerged application at 0.5 leaf stage, visually observed 14 days after application, 0 = non-treated, 100 = complete kill
Method in brief: (§2)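 Barnyardgrass and japanese bulrush sown in flooded paddy soil in greenhouse pots, japanese ribbon wapato tubers planted 1–2 days later; water depth kept at 3–4 cm. Diluted wettable powder or emulsifiable concentrate applied into water at 0.5-leaf or primary-leaf stage at set active-ingredient doses. Growth control scored visually at 14 days, 0 (untreated) to 100% (complete kill).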

rice (var. Nihonbare) = assay: Test Example 3: paddy pot test, transplanted rice; type: in vivo, Oryza sativa L.; details: applied 4th day after transplantation, visually observed 21st day after application, 0 = non-treated, 100 = complete kill
Method in brief: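 Rice (var. Nihonbare) at 2 leaf stage transplanted 3 cm deep into puddled paddy soil under 3–4 cm flooding; on day 4 after transplanting, diluted wettable powder or emulsifiable concentrate applied by pipette under submerged conditions at a set active-ingredient dose. Growth scored visually 21 days after application, 0 (untreated) to 100 (complete kill) %.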

japanese bulrush = assay: Test Example 3: paddy pot test, application under submerged conditions; type: in vivo, Scirpus juncoides; details: submerged application at 0.5 leaf stage, visually observed 14 days after application, 0 = non-treated, 100 = complete kill
Method in brief: as §2

SMILES | Growth controlling degree (%) Redroot pigweed (redroot pigweed; active ingredient 500 g/ha) | Growth controlling degree (%) Velvetleaf (velvetleaf; active ingredient 500 g/ha) | Growth controlling degree (%) Green foxtail (green foxtail; active ingredient 500 g/ha) | Growth controlling degree (%) Prickly sida (prickly sida; active ingredient 500 g/ha) | Growth controlling degree (%) Rice (rice; active ingredient 500 g/ha) | Growth controlling degree (%) Barnyardgrass (barnyardgrass [1]; active ingredient 500 g/ha) | Growth controlling degree (%) Crabgrass (crabgrass; active ingredient 500 g/ha) | Growth controlling degree (%) Barnyardgrass (barnyardgrass [2]; active ingredient 250 g/ha) | Growth controlling degree (%) Rice (rice (var. Nihonbare); active ingredient 250 g/ha) | Growth controlling degree (%) Japanese bulrush (japanese bulrush; active ingredient 250 g/ha) | Growth controlling degree (%) Redroot pigweed (redroot pigweed; active ingredient 250 g/ha) | Growth controlling degree (%) Velvetleaf (velvetleaf; active ingredient 250 g/ha) | Growth controlling degree (%) Green foxtail (green foxtail; active ingredient 250 g/ha) | Growth controlling degree (%) Prickly sida (prickly sida; active ingredient 250 g/ha) | Growth controlling degree (%) Rice (rice; active ingredient 250 g/ha) | Growth controlling degree (%) Barnyardgrass (barnyardgrass [1]; active ingredient 250 g/ha) | Growth controlling degree (%) Crabgrass (crabgrass; active ingredient 250 g/ha) | Growth controlling degree (%) Corn (corn; active ingredient 250 g/ha) | Growth controlling degree (%) Soyabean (soybean; active ingredient 250 g/ha) | Growth controlling degree (%) wheat (wheat; active ingredient 250 g/ha) | other results
CC(C)C(c1cnccc1C(F)(F)F)N(C)S(=O)(=O)c1ccccc1Cl (racemic) [Compound I-126] | 30% | 10% | 70% | 50% | 20% | 80% | 30% | – | – | – | – | – | – | – | – | – | – | – | – | – | Growth controlling degree (%) Corn (corn; active ingredient 500 g/ha): 0%; Growth controlling degree (%) Soyabean (soybean; active ingredient 500 g/ha): 0%; Growth controlling degree (%) wheat (wheat; active ingredient 500 g/ha): 10%
CC(C)C(c1cnccc1C(F)(F)F)N(C)C(=O)Cc1ccc(Br)c(F)c1 (racemic) [Compound I-129] | 40% | 10% | 100% | 70% | 30% | 98% | 98% | 100% | 0% | 90% | – | – | – | – | – | – | – | – | – | – | Growth controlling degree (%) Corn (corn; active ingredient 500 g/ha): 30%; Growth controlling degree (%) Soyabean (soybean; active ingredient 500 g/ha): 10%; Growth controlling degree (%) wheat (wheat; active ingredient 500 g/ha): 30%
CC(C)C(c1cnccc1C(F)(F)F)N(C)C(=O)Cc1ccc(Br)cc1F (racemic) [Compound I-137] | – | – | – | – | – | – | – | 100% | 0% | 98% | 50% | 50% | 100% | 50% | 40% | 98% | 98% | 10% | 20% | 30% | –
CC(C)C(c1cnccc1C(F)(F)F)N(C)S(=O)(=O)C=Cc1ccccc1 (racemic) [I-135] | 20% | 30% | 70% | 50% | 20% | 80% | 70% | – | – | – | – | – | – | – | – | – | – | – | – | – | Growth controlling degree (%) Barnyardgrass (barnyardgrass [2]; active ingredient 500 g/ha): 98%; Growth controlling degree (%) Rice (rice (var. Nihonbare); active ingredient 500 g/ha): 10%; Growth controlling degree (%) Japanese bulrush (japanese bulrush; active ingredient 500 g/ha): 100%; Growth controlling degree (%) Corn (corn; active ingredient 500 g/ha): 0%; Growth controlling degree (%) Soyabean (soybean; active ingredient 500 g/ha): 0%; Growth controlling degree (%) wheat (wheat; active ingredient 500 g/ha): 10%
CC(C)C(c1cnccc1C(F)(F)F)N(C)S(=O)(=O)c1ccc(Br)cc1 (racemic) [I-136] | – | – | – | – | – | – | – | 100% | 0% | 70% | 10% | 30% | 95% | 50% | 50% | 70% | 90% | 20% | 10% | 10% | –
CC(C)C(Br)C(=O)N(C)C(c1cnccc1C(F)(F)F)C(C)C (stereo not drawn) [Compound I-197] | 90% | 50% | 100% | 70% | 40% | 100% | 100% | 100% | 0% | 98% | – | – | – | – | – | – | – | – | – | – | Growth controlling degree (%) Corn (corn; active ingredient 500 g/ha): 20%; Growth controlling degree (%) Soyabean (soybean; active ingredient 500 g/ha): 10%; Growth controlling degree (%) wheat (wheat; active ingredient 500 g/ha): 50%
CCC(Br)C(=O)N(C)C(c1cnccc1C(F)(F)F)C(C)C (stereo not drawn) [Compound I-202] | – | – | – | – | – | – | – | 98% | 10% | 98% | 80% | 40% | 95% | 70% | 60% | 100% | 100% | 50% | 35% | 40% | –
CC(C)C(c1cnccc1C(F)(F)F)N(C)C(=O)C1CC1 (stereo not drawn) [Compound I-204] | – | – | – | – | – | – | – | 100% | 60% | 98% | 95% | 70% | 100% | 95% | 100% | 100% | 100% | 70% | 70% | 95% | –
CC(C)=CC(=O)N(C)C(c1cnccc1C(F)(F)F)C(C)C (stereo not drawn) [Compound I-205] | – | – | – | – | – | – | – | 100% | 20% | 98% | 80% | 60% | 100% | 70% | 70% | 100% | 100% | 40% | 30% | 95% | –
